Reference: ChEMBL document CHEMBL1123649, “Congener derivatives and conjugates of histamine: synthesis and tissue and receptor selectivity of the derivatives” (J Med Chem, 1987)

Columns and labels:
[1] = biological target: Histamine H1 receptor (Homo sapiens) (UniProt P35367); assay: Effect on peripheral vasculature of the rabbit as percentage change in contractility.; format: functional, tissue-based; settings: Oryctolagus cuniculus, target entry is the homologue from another species
[2] = biological target: Histamine H2 receptor (Cavia porcellus) (UniProt P47747); assay: Relative potency in guinea pig myocardium (GPM) by adenylate cyclase stimulation assay, H2 receptor response; format: functional, tissue-based
Chain of Histamine H2 receptor (Cavia porcellus) (P47747 whole entry): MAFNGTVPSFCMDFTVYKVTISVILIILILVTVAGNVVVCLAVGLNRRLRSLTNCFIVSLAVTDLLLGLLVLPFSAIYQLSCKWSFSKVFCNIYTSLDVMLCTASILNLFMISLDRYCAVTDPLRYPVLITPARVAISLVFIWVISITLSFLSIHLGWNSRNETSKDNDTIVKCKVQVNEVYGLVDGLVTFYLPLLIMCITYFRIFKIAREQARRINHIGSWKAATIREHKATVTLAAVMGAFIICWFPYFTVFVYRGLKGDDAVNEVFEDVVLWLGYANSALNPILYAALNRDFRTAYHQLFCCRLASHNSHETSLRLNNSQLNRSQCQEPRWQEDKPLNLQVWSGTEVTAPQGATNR

[3] = biological target: Histamine H2 receptor (Mus musculus) (UniProt P97292); assay: Relative potency by cAMP assay in natural suppressor cells.; format: functional, cell-based
Chain of Histamine H2 receptor (Mus musculus) (P97292 whole entry): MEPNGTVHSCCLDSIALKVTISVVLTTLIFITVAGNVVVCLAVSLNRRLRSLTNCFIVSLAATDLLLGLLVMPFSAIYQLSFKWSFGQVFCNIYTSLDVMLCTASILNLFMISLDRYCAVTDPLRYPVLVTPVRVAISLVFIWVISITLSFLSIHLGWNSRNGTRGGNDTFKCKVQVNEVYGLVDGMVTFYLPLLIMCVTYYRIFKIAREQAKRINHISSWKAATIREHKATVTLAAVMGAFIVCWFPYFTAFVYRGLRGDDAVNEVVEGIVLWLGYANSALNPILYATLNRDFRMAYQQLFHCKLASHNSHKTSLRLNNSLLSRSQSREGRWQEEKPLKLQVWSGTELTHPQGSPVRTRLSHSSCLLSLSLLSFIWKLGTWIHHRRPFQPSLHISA

Chain of Histamine H1 receptor (Homo sapiens) (P35367 whole entry): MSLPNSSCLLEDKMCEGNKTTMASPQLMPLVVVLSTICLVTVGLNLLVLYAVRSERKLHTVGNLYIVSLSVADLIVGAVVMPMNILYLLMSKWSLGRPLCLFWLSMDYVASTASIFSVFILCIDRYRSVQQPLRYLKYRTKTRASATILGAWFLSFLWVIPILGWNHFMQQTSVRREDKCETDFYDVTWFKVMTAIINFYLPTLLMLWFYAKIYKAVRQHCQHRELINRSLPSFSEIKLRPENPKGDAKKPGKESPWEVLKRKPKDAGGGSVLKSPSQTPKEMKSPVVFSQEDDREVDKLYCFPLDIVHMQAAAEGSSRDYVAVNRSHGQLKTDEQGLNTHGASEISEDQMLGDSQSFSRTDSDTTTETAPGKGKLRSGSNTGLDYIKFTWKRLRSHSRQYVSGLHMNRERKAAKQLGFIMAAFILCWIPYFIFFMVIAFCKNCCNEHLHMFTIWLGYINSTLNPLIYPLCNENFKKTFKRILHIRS

| SMILES | Change [1] | Relative potency [2] | Relative potency [3] |
| --- | --- | --- | --- |
| CC(CCCC(=O)Nc1ccc(C(F)(F)F)cc1)NCCc1c[nH]cn1 (stereo not given) | 0% | 0 | 0 |
| CNC(=O)CNC(=O)C(Cc1ccccc1)N(NC(=O)CCC(C)NCCc1c[nH]cn1)C(=O)OC(C)(C)C (stereo not given) | 0% | 0 | 0 |
| Cc1ccc(NC(=O)CCC(C)NCCc2c[nH]cn2)cc1 (stereo not given) | 0% |  | 0 |
| Cc1ccc(NC(=O)CCCC(=O)NCCc2c[nH]cn2)cc1 | 0% | 0 | 4.4 |
| Cc1ccc(NC(=O)CCCCCC(C)NCCc2c[nH]cn2)cc1 (stereo not given) | 0% | 0.02 | 2 |
| CC(CCCCC(=O)Nc1ccccc1C(F)(F)F)NCCc1c[nH]cn1 (stereo not given) | 0% | 0 | 0 |
| CCCCCC(=O)NCCc1c[nH]cn1 | 0% | 0 | 0 |
| NCCc1c[nH]cn1 | 284% | 1 | 1 |
| CC(CCCCC(=O)Nc1ccc(C(F)(F)F)cc1)NCCc1c[nH]cn1 (stereo not given) |  | 0 | 40000 |
| Cc1ccc(NC(=O)CC(C)NCCc2c[nH]cn2)cc1 (stereo not given) | 0% |  | 0 |
| Cc1ccc(NC(=O)CCCC(C)NCCc2c[nH]cn2)cc1 (stereo not given) | 90% | 0.01 | 4000 |
| CNC(=O)CNC(=O)C(Cc1ccccc1)N(NC(=O)CCCCC(C)NCCc1c[nH]cn1)C(=O)OC(C)(C)C (stereo not given) | 0% | 0.0007 | 0 |
| CCCCCC(C)NCCc1c[nH]cn1 (stereo not given) | 0% | 0 | 0 |
| CCCCNC(=O)CCCCC(C)NCCc1c[nH]cn1 (stereo not given) | 0% | 0.01 | 0 |
| CCCCCCNCCc1c[nH]cn1 | 93% | 0 | 5 |
| Cc1ccc(NC(=O)CCCCC(C)NCCc2c[nH]cn2)cc1 (stereo not given) | 0% | 0.07 | 3 |
| Cc1ccc(NC(=O)CCCCNCCc2c[nH]cn2)cc1 | 0% | 0.09 | 2 |
| CC(CCC(=O)Nc1ccc(C(F)(F)F)cc1)NCCc1c[nH]cn1 (stereo not given) | 0% |  | 0 |
| CC(CC(=O)Nc1ccc(C(F)(F)F)cc1)NCCc1c[nH]cn1 (stereo not given) | 0% |  | 0 |
| CNC(=O)CNC(=O)C(Cc1ccccc1)N(NC(=O)CCCC(C)NCCc1c[nH]cn1)C(=O)OC(C)(C)C (stereo not given) | 0% | 0 | 0 |
